Experimental data taken from the OligoGym collection.
These antisense oligonucleotides have a phosphorothioate backbone; sugars and methylation of C are not fully specified.

target: IL15; conditions: ASO
Further: test concentration or dose not given here.

Row | Sequence | remaining target (mRNA or protein) (fraction of control)
1 | AGTGAAATAACTTGTAAC | ≥ 1
2 | ATATTACTCAATGACATT | ≥ 1
3 | TTCTCATTACTCAAAGCC | 0.87
4 | ACACAAGTAGCACTGGAT | 0.43
5 | TTTAGAAGTAAACACAAG | ≥ 1
6 | AGACATGAATGCCAGCTT | 0.26
7 | CCATCCACGATGCCTCCT | 0.5
8 | TTTAATCTTTACAATAAT | ≥ 1
9 | ACTCTAGGCCCATAGCAA | 0.58
10 | GGGTGAACATCACTTTCC | 0.43
11 | CTGAACTGAGAGTCAGAT | 0.27
12 | CTGTTTTAGGAAGCCCTG | 0.58
13 | CATAGCAAGTACATGACA | 0.46
14 | ATTAGAAGACAAACTGTT | ≥ 1
15 | TTCAATAATAAATTAAAA | ≥ 1

target: RHOG; conditions: ASO

Row | Sequence | remaining target (mRNA or protein) (fraction of control)
16 | CGCGAGTGCCTGGCCCTG | 0.91
17 | GGGTCCAACCTTGGCTTG | 0.42
18 | ACCACAATAGGCAGCAAC | 0.69
19 | GCATCGTGGGTGCAGTTG | 0.53
20 | TGTACGGAGGCGGTCATA | 0.63
21 | GCAGCCTCCAAGCCAAGT | 0.58
22 | GTCAGTAGCGGAAAATGG | ≥ 1
23 | CCCTGCTGCGGTGTGATG | 0.56
24 | GAACACTTCCTTGACACC | 0.69
25 | GACCTGGTGCCCCTCCCG | 0.65
26 | GGCAGTGCCTCCTCTCTC | 0.65
27 | CAATGGAGAAACAGATGA | ≥ 1
28 | CGCACGTTCTCATAGGAC | 0.76
29 | AGGGCAGTGGTGGCACAC | 0.85
30 | GAGGGCAGAGGTTAGAGA | 0.79
31 | CATAGGACGGCGGACTGG | 0.83
32 | ACATTCACCTTCTCAGGA | 0.8
33 | AACTGTGTGGAAAGCTGG | 0.92
34 | GCGCGCTGTAATTGTCGA | 0.64
35 | ACACCATCCTGTTGCAGG | 0.77

Row | Sequence | remaining target (mRNA or protein) (fraction of control)
36 | ACAGCCTCGGCGAACACT | 0.94
37 | GTAGCGCACAGCGTGGAT | 0.65
38 | ACCTCTGGATGCCACTTG | 0.65
39 | GTCAGCAAATGCGTAAGG | 0.76
40 | AGCTGGATGAACTGGTCA | 0.77
41 | TGGAGAAGGGAGAGAGCA | 0.68
42 | CCACCACGCACTTGATGC | 0.86
43 | AAGAGGATGCAGGACCGC | 0.82
44 | GTGCAGTTGCTGTAGTGA | 0.9
45 | GTCCCACAGGTTCAGGTT | 0.69
46 | AAAGCGTTAGTTGTGTAG | ≥ 1
47 | ACGTTGGTCTGAGGGTAG | 0.62
48 | AAAAGGCATTCAGGGAAC | ≥ 1
49 | TTGTGTAGCAGATGAGCA | 0.65
50 | CATTCGAGGTAGCGCACA | 0.61
51 | CAATTCCAAGAGCAGCGA | 0.82
52 | GGTTCACTGTGCGCCCGT | 0.84
53 | TCTTCTGGACCCCTCTGG | 0.64
54 | GGGTGTCAGGCTGGGCTC | 0.85
55 | CAGCAGGATGGGCACATC | 0.8

target: PRKAR2A; conditions: ASO

Row | Sequence | remaining target (mRNA or protein) (fraction of control)
56 | ATCTGTATCTTCCTCTTCCT | 0.73
57 | TAATGAATGGGCCTTCAGAA | ≥ 1
58 | CCCGAGGTTGCCCAGATCCA | ≥ 1
59 | CGGGATCTGGATGTGGCTCA | 0.81
60 | AATGCCCATAACCACAGCAA | 0.39
61 | CACACCTACTGCCCGAGGTT | 0.38
62 | TGTGGCTGACCAGAAGGTTT | 0.53
63 | GCTGTTCCTCATAGTGTGAG | ≥ 1
64 | ATCTGGATGTGGCTCATGCC | 0.82
65 | TTGAACCTCTGCCCATCCTT | 0.39
66 | TGAGTGATTATGCGTTCTCC | 0.8
67 | CGCACGGCCCCGGCTCACGT | 0.68
68 | CAATGACATGCTCATCAGCT | 0.74
69 | AAGGAGAATATCTTTGCAAG | ≥ 1
